The structures appear in SMILES notation. Like-named read-outs stand apart in the source and are kept apart here.

For data set [1], the system named is phosphorylation of AKT and mTOR. In words: Western blot of PI3K pathway. The data set is classed as cell-based, human. Particulars: 48 h. The protocol: Western blots were performed as previously described. Cells were seeded into six-well plates and treated with DMSO or a series of concentrations of KTC1101. Cells were lysed, and total proteins were harvested. Equal amounts of protein (20–50 μg) were separated using 8% or 12% SDS-PAGE and transferred to polyvinylidene difluoride membranes (Bio-Rad). After blocking in 5% nonfat dry milk, the membranes were incubated with appropriate primary antibodies overnight at 4 °C, washed, and incubated with respective HRP-conjugated secondary antibodies for 1 h at room temperature. The signals were detected using a ChemiDoc XRS + System (Bio-Rad) after exposure to chemiluminescence reagents (Bio-Rad), and β-actin served as the loading control.

In data set [2] the test system is tumor cell lines. The data set is described as follows: Apoptosis analysis. The class given is cell-based, human. Particulars: tested cell lines, 48 h.
For data set [3], the system named is JFCR39 panel of 39 human tumor cell lines. In words: JFCR39 panel growth inhibition, panel statistics. The data set is classed as cell-based. Particulars: for GI50: Homo sapiens. On the procedure:
JFCR39 drug discovery system was used to measure the growth inhibitory activities and identify the target of KTC1101. The JFCR39 panel consists of 39 cell lines seeded in 96-well plates. After 48-h treatment with KTC1101, cell growth was measured using the sulforhodamine B assay. […] The deviation of log GI50 for each cell line from the average log GI50 across the JFCR39 panel was plotted as a fingerprint. MG-MID (mean of Log GI50 values) represents the average log GI50 for all 39 cell lines. The most sensitive and least sensitive cell lines were identified by calculating the difference in their log GI50 values (Range) and the difference between the most sensitive cell line and the average GI50 on the JFCR39 panel (Delta). The fingerprint of KTC1101 was compared with the fingerprints of reference compounds in the database. The Pearson correlation coefficient (r) was calculated (n = 39).

A short description of data set [4]: Pharmacokinetic study of oral administration. The class given is in vivo. Particulars: mouse, blood, BALB/c male mice, 100 mg/kg p.o. On the procedure: Chromatographic conditions employed a Waters BEH C18 column (2.1 mm × 50.0 mm, 1.7 µm) with a mobile phase comprising acetonitrile with 0.1% formic acid (A) and water with 0.1% formic acid (B), at a flow rate of 0.4 mL/min and a column temperature of 40°C. Gradient elution was used: 0–0.3 min, 20:80 → 20:80 (A:B); 0.3–2.5 min, 20:80 → 60:40 (A:B); 2.5–3.0 min, 60:40 → 100:0 (A:B); 3.0–3.01 min, 100:0 → 20:80 (A:B); 3.01–3.5 min, 20:80 → 20:80 (A:B). Mass spectrometry was performed using electrospray ionization (ESI) in positive ion mode, with a capillary voltage of 1 kV, a desolvation temperature of 450 °C, and a desolvation gas flow of 800 L/h. KTC1101 and internal standard phenacetin parameters were optimized for ionization and collision energies.
KTC1101 was prepared at 1 mg/mL concentration in acetonitrile, and further diluted to create a series of standard solutions. Blood samples were taken from BALB/c male mice (19 ± 2g) at various time points post-oral administration of KTC1101 (100 mg/kg). Samples were processed and analyzed using HPLC coupled with mass spectrometry. Data were calculated using Masslynx 4.1 and DAS 3.0 software.

The test system of data set [5] is PC3 tumors. The data set is described as follows: PC3 xenograft in BALB/c nude mice. The data set is classed as in vivo, mouse. On the procedure:
(§1) BALB/c nude, NSG, and C57BL/6J mice were obtained from Tianjin Medical University. The housing temperature was controlled, ranging from 20.5–24 °C, and humidity was monitored but not controlled ranging from 30–70%. The 12-h daily light cycle was from 06:00 to 18:00. To generate a murine subcutaneous tumor model, PC3 and HSC2 cells were subcutaneously injected into the right lateral flank of 4- to 5-week-old male BALB/c nude mice. TMD8, CAL33, and S24 cells were subcutaneously injected into the right lateral flank of 4- to 5-week-old male NSG mice. When tumors reached a volume of 300–500 mm^3, they were excised, diced into 2 mm × 2 mm × 2 mm pieces, and implanted into the right flanks of BALB/c nude or NSG mice. Tumors were allowed to grow to a volume of 100 mm^3, and then the animals were randomly divided into several groups. Each group of five mice was treated with either vehicle or KTC1101 (25, 50, or 100 mg/kg, PO). Tumor size was measured every 3 d or 4 d until the endpoint. The tumor volume was calculated using the following formula: length × width × height/2. At the end of the experimental period, mice were euthanized by overdosing on pentobarbital sodium, and the tumors were removed. Tumor tissue was formalin-fixed and paraffin-embedded for histological analysis.

For data set [6], the system named is CAL33 tumors. The data set is described as follows: CAL33 xenograft in NSG mice. The settings on record: 100 mg/kg PO. The class given is in vivo, mouse. The protocol:
as §1

The test system of data set [7] is CCL5 and CXCL10. The data set is described as follows: qRT-PCR and ELISA of chemokines in B16 cells. The data set is classed as cell-based, mouse. Particulars: 48 h. On the procedure:
qRT-PCR was performed as previously described. RNA was isolated using Trizol and used to synthesize complementary DNA (cDNA) using a cDNA Synthesis Kit (GenStar), and RT-PCR was performed with aliquots of cDNA samples mixed with SYBR Green MasterMix (Applied Biosystems). Reactions were performed in triplicate.
We examined the secreted cytokines from B16 cells under both in vitro and in vivo conditions. For in vitro-cultured B16 cells, the cells were seeded into six-well plates and treated with either DMSO or a range of KTC1101 concentrations. After 48 h, the total cell count was determined, and the cell culture supernatant was collected for further analysis. For in vivo tumor tissues, the harvested tumor tissues were homogenized. Post-centrifugation, the supernatant was collected and used for protein quantification utilizing a BCA kit. The concentrations of murine CCL5 and CXCL10 in these supernatants were then quantified using specific ELISA kits, in accordance with the manufacturer's instructions.

For data set [8], the system named is PC3 cells gene expression. In words: RNA-Seq (DEGs, GSEA) of PC3 cells. Particulars: 25 nM, 48 h.

In the case of `COc1cc(N)cc2c1nc(C(F)F)n2-c1nc(N2CCCOCC2)nc(N2CCOCC2)n1` [KTC1101, 2-(difluoromethyl)-4-methoxy-1-(4-morpholino-6-(1,4-oxazepan-4-yl)-1,3,5-triazin-2-yl)-1H-benzo[d]imidazol-6-amine], the “phosphorylation of AKT and mTOR” value in data set [1] is listed as “reduced phosphorylation”. Further, the induction of apoptosis result in data set [2] is given as “did not observe a potent induction of apoptosis except HSC2 cell line”. For the same compound, in data set [3] (JFCR39 panel, read-out: mean GI50 across all 39 cell lines), the GI50 is 23.4 nM. Besides, in data set [3] (all 39 cell lines, read-out: MG-MID (mean of Log GI50 values) (converted)), the GI50 was 23.4 nM. In addition, in data set [3] (JFCR39 panel), the “fold lower mean GI50 than Copanlisib” value came out at 5.7 fold and the “fold lower mean GI50 than ZSTK474” value came out at 13.7 fold. For the same compound, in data set [4], the AUC(0-t) was determined as 9330 ng·h/mL, the Cmax was found to be 1660 ng/mL, the Tmax came out at 0.67 h and the half-life was 7.19 ± 4.07 h. Also, the CL/F in data set [4] (read-out: CLz/F (converted)) is 179 mL/min/kg. Also, the Vd/F in data set [4] (read-out: Vz/F) stood at 118 ± 85.5 L/kg. The tumor growth entry in data set [5] (25 mg/kg PO) was “significant delay in tumor growth”. For the same compound, in data set [5] (50 mg/kg PO), the “efficacy in inhibiting PC3 tumors” value is on record as “equivalent to 200 mg/kg ZSTK474”. The tumor growth entry in data set [5] (100 mg/kg PO) is “Tumor growth arrest”. Also, the tumor growth result in data set [6] is “Tumor growth arrest”. In addition, in data set [7], the “expression levels of CCL5 and CXCL10” value was “significantly stimulated”. Besides, the “expression of genes associated with the PI3K/AKT/mTOR pathway (GSEA)” value in data set [8] is listed as “reduction in the expression of genes”.

Values taken from publication PMC10938783, “A novel pan-PI3K inhibitor KTC1101 synergizes with anti-PD-1 therapy by targeting tumor suppression and immune activation” (Molecular Cancer, 2024).
